Experimental data taken from US7303740B2, “Methods for the diagnosis and treatment of breast cancer” (Albert Einstein College of Medicine of Yeshiva University, priority 2000, dated 2007).

Columns and labels:
NIS = target: T1, NIS (Rattus norvegicus, UniProt Q63008); assay type: in vivo
T1 construct: from tissue; host or cells: living female rats (nubile and lactating): thyroid, stomach, lactating mammary gland
T1 sequence (Q63008 1-618): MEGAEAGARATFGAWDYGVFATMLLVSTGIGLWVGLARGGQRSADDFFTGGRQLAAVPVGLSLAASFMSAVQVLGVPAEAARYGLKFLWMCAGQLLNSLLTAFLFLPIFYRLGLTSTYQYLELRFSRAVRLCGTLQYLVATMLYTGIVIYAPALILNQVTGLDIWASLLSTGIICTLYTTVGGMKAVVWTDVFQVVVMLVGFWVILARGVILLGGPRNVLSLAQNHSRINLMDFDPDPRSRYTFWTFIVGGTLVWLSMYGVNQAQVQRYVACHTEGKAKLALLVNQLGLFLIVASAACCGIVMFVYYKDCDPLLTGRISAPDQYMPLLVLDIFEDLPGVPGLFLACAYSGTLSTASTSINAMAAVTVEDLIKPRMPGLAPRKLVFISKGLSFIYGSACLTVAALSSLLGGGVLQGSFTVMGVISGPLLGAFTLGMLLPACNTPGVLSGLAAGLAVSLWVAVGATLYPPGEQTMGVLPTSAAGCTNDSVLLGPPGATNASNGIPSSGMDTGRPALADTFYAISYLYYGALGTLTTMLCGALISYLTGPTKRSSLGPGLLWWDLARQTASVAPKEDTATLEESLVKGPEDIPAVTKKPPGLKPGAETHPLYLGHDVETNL
Method: FIG. 1. Characterization of I^− accumulation and NIS expression in rat lactating MG and stomach. (A)-(C) In vivo scintigraphic imaging of ^99mTcO4^− injected adult female rats. (A) Radiotracer (1.5 mCi) was injected into the tail vein of nubile animals, and pin-hole images of the body were obtained at 30 min post-injection. (B) Lactating rats were imaged 5 min after ^99mTcO4^− injection. (C) To ascertain inhibition of ^99mTcO4^− uptake, ^99mTcO4^− and 20 mg perchlorate were co-injected into the tail vein, followed by static imaging at 5 min. (D) Immunoblot analysis. Membrane fractions isolated from rat tissues were electrophoresed, electrotransferred onto nitrocellulose, and immunoblotted with affinity-purified anti-NIS antibody (Ab) and horseradish peroxidase (HRP) linked anti-rabbit IgG (Amersham-Pharmacia, Piscataway, N.J.). Approximately 40 μg of membrane fractions were incubated (either with or without N-glycosidase F) overnight at 37° C., followed by SDS polyacrylamide gel electrophoresis and Western blot analysis. Lanes 1 and 2: thyroid; lanes 4 and 5: lactating MG; lanes 7 and 8: stomach; lane 10: non-lactating MG; lane 11: muscle; and lane 12: lung. […]

mgNIS [1] = target: T2, mgNIS (Mus musculus, UniProt Q99PN0); assay: Ex vivo scintigraphic imaging of 99mTcO4- accumulation in organs of oxytocin-treated nubile mice; set-up: Membrane fractions isolated from MG of nubile female mice; from tissue; host or cells: CD1 (ICR) mice (intact, ovariectomized, gestating) and MMTV-ras / MMTV-neu transgenic mice: mammary gland, mammary adenocarcinoma, stomach; details: 2 mg perchlorate with tracer
T2 sequence (Q99PN0 1-618): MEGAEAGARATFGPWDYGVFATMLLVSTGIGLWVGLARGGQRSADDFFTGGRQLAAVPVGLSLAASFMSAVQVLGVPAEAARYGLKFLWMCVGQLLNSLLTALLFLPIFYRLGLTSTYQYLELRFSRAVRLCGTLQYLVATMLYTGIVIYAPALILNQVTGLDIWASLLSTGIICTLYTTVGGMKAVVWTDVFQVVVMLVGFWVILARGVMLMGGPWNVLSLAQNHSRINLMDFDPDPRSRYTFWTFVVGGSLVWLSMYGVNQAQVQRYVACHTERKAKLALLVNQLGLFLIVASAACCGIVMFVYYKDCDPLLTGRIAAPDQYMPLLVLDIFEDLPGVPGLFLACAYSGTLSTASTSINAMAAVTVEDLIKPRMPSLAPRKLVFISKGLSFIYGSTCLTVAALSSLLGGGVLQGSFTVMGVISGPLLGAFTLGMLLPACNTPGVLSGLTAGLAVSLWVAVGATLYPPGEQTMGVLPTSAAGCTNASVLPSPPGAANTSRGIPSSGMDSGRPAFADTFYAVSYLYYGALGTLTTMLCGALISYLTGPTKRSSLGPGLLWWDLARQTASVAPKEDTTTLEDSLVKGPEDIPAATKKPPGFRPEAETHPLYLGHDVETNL
Method: FIG. 3. In vivo effect of oxytocin on functional expression of mgNIS in nubile mice. (A) Radioiodide transport in MG of oxytocin-treated nubile mice. Seven- to eight-week-old female mice were treated subcutaneously with phosphate buffered saline solution (PBS), 10 I.U. of prolactin (PRL), 1 I.U. of oxytocin (OXY), or prolactin and oxytocin (PRL+OXY) for three days. Then, 1 μCi of ^125I^− was injected intraperitoneally. […] (B) Immunoblot analysis of MG from hormonally-treated mice. […] Isolated membrane fractions were electrophoresed, electrotransferred onto nitrocellulose, and analyzed by immunoblots using anti-NIS Ab. […] Perchlorate-inhibited accumulation of ^99mTcO4^− was detected in stomach and MG of OXY-treated animals. (D) Quantification of ^99mTcO4^− accumulation in various organs from OXY- or PBS-treated mice. Tracer accumulation was monitored using image analysis software (ImageQuant, Macintosh). […] Counts were divided by the weight of the organs (cpm/mg tissue), and standardized by dividing them by cpm detected in the blood (cpm/mg blood) of each animal. ^99mTcO4^− accumulation in the organs from: PBS-treated animals (open bars); OXY-treated animals (dotted bars); and OXY-treated animals after ^99mTcO4^−+perchlorate injection (dark bars). […]

mgNIS [2] = target: T2, mgNIS; assay type: in vivo, mice; set-up: Membrane fractions isolated from MG of nubile female mice; from tissue; host or cells: CD1 (ICR) mice (intact, ovariectomized, gestating) and MMTV-ras / MMTV-neu transgenic mice: mammary gland, mammary adenocarcinoma, stomach
Method: Analysis of mammary adenocarcinomas in MMTV-ras and MMTV-neu transgenic mice. (A) Photograph of MMTV-ras transgenic mouse with a mammary adenocarcinoma. Transgenic mice were anaesthetized with intramuscular sodium pentobarbital injections. […] (E) Dynamic curves of percent injected dose per pixel were calculated by drawing regions of interest around tumoral tissue and the mediastinum, and dividing the counts per pixel (average counts) within each region of interest by the initial whole-body count value, thereby yielding a percent injected dose per pixel. (F) Immunoblot analysis of membrane fractions isolated from MMTV-ras tumor with anti-NIS Ab. (I) Immunoblot analysis of membrane fractions isolated from MMTV-neu tumors with anti-NIS Ab. In an MMTV-neu mouse with two adjacent mammary glands containing tumors, each tumor is indicated with an arrow and numbered. Lanes “tu1”, “tu2”, and “mg” correspond to proteins extracted from tumor 1, tumor 2, and contralateral normal mammary gland, respectively.
To assess whether specific active I^− uptake (a result of mgNIS expression) occurred in the mammary tumoral cells, transgenic animals were imaged in vivo with either ^131I^− or ^99mTcO4^−. […] Quantification of the accumulation of the various tracers in the tumor, as a function of time, is also shown for the ras mouse.

mgNIS [3] = target: T2, mgNIS; details: mice, 18th day of gestation, subcutaneous injection
Method: Animals at indicated days of gestation (3rd, 11th, or 18th) received a single dose of 1 μCi ^125I^− by subcutaneous injection in 100 μl of PBS. One hour later, MG were surgically removed, and radioactivity was quantified in a γ-counter (LKB 1282 Compugamma, Md.). Obtained values were standardized according to the weight of MG removed from each mouse, and were expressed as the ratio of radioiodide in MG tissue versus blood.

mgNIS [4] = target: T3, mgNIS (Homo sapiens, UniProt Q92911); assay: 99mTc-pertechnetate scintigraphy of a person with locally-advanced breast cancer; assay type: in vivo; details: whole-body scan, invasive ductal carcinoma
T3 construct: from tissue; host or cells: person with locally-advanced invasive ductal carcinoma of the breast (whole-body scan)
T3 sequence (Q92911 1-643): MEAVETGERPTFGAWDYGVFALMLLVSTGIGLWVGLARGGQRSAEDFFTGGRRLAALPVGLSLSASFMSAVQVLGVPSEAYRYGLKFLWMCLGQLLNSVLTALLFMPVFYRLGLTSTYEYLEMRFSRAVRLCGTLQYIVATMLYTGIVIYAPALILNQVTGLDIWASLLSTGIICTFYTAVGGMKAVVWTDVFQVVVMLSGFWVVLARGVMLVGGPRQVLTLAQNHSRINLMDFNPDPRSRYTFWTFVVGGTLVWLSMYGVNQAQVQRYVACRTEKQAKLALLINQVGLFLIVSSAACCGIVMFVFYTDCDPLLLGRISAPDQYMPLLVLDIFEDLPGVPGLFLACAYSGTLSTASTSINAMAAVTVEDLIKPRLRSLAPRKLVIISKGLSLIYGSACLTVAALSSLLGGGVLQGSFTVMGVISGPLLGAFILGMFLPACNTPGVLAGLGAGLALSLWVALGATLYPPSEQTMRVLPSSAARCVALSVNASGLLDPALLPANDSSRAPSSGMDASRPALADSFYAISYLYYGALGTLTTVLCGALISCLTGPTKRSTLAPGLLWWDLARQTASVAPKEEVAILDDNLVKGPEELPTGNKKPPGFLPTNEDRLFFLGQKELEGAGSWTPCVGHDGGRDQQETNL
Source text: FIG. 7. ^99mTc-pertechnetate scintigraphy of a person with a locally-advanced cancer of the right breast and an enlarged thyroid. The patient was scanned after injection of 15 mCi of ^99mTc-labeled pertechnetate (^99mTcO4^−). Tracer accumulates in the thyroid and stomach. Tracer is present in the heart and liver due to vascular pooling. The arrow indicates distinct accumulation in the area of the breast cancer.
The results obtained from the studies on transgenic mice, and the similarity between the human breast cancer immunohistochemical patterns and those observed in thyroid cancer, indicate the likelihood that mgNIS expressed in human breast tumors is active. Clearly, the most direct way to determine the activity of mgNIS in breast cancer is to subject patients to scintigraphic evaluation with ^99mTcO4^−. One patient who was undergoing neoadjuvant hormonal therapy for locally-advanced breast cancer presented initially with an enlarged thyroid. Accordingly, they underwent whole-body ^99mTcO4^− scanning.

[5] = lactating rats, single intraperitoneal injection

For `[O-][Cl+3]([O-])([O-])O` [perchlorate], the “effect on 99mTcO4- concentration in thyroid, stomach, and lactating MG” value (NIS; lactating rat, 20 mg perchlorate co-injected, imaging at 5 min) was “effectively prevented”, the “effect on 99mTcO4- accumulation in organs” value (mgNIS [1]) was “inhibited” and the “effect on 99mTcO4- accumulation in tumor and stomach” value (mgNIS [2]; co-injected with the isotope) was “prevented”.
For `[125IH]` [^125I^−, radioiodide], the “125I- concentration in lactating MG” value (lactating rat) was “concentrated in lactating MG”, the “125I- concentration in milk with respect to blood” value [5] was > 60 fold and the “time of saturation of 125I- accumulation in milk” value [5] was ~2 h. For the same compound, the “125I- concentration in skeletal muscle or non-lactating MG” value (rat, in vivo) was “not concentrated” and the “accumulation of radioiodide in MG compared with blood concentration” value (mgNIS [3]) was 15 fold.
For `[O]=[99Tc](=[O])(=[O])[O-]` [^99mTcO4^−, ^99mTc-pertechnetate], the “time to concentration of 99mTcO4- in all pairs of MGs” value (NIS; lactating rats, tail vein injection) was ≤ 5 min, the “tracer distribution in patient with breast tumor” value (mgNIS [4]) was “concentrated in the area of this patient's breast tumor” and the “tracer accumulation in mammary tumor” value (mgNIS [2]; MMTV-ras and MMTV-neu mice, tail vein injection) was “accumulated in the stomach and tumor”.
